# Data reported in US9428507B2, “Compounds for the treatment of malaria” (The Broad Institute, Inc., priority 2013, dated 2016).
# System: Dd2 strain of P. falciparum
# Test: Activity against the Dd2 strain of P. falciparum (SYBR Green I, 72-h incubation)
# Type: cell-based
# Settings: Plasmodium falciparum, DD2, 72 h, read-out: EC^50 Dd2
# Protocol: The Dd2 strain of P. falciparum was cultured in complete medium (RPMI with L-glutamine, 4.3% heat-inactivated O-positive human serum, 2.08 mg/ml albumax, 0.013 mg/ml hypoxanthine, 1.17 mg/ml glucose, 0.18% NaHCO3, 0.031 M Hepes, 2.60 mM NaOH, and 0.043 mg/ml gentamicin) until the parasitemia reached 3-8%. Parasitemia was determined by checking at least 500 red blood cells from a Giemsa-stained blood smear. The Dd2 cultures along with tested O-positive red blood cells are centrifuged at room temperature at 2,000 rpm for 5 min using an Eppendorf centrifuge 581 OR with an A-4-81 rotor. The medium was aspirated off. For the compound screening, a parasite dilution at a 1% parasitemia and 1.0% hematocrit was created with screening medium (RPMI with L-glutamine, 4.16 mg/ml albumax II, 0.013 mg/ml hypoxanthine, 1.73 mg/ml glucose, 0.18% NaHCO3, 0.031M Hepes, 2.60 mM NaOH, and 0.043 mg/ml gentamicin). The suspension was gassed with 93% nitrogen, 4% carbon dioxide, and 3% oxygen and placed at 37° C. until needed. Using a liquid dispenser, 20 μl of screening medium was dispensed into 384-well, black, clear-bottom plates. With a PinTool, 100 nl of compounds dissolved in DMSO was transferred into the assay plates along with control compound (mefloquine). Next, 30 μl of the parasite suspension in screening medium was then dispensed into the assay plates such that the final parasitemia was 1%, and the final hematocrit was 1.0%. Final concentration of DMSO was 0.125%. Mefloquine at a final concentration of 20 μM and DMSO at a final concentration of 0.125% were used within the assay plates to serve as background and baseline controls, respectively. The assay plates were transferred to incubators (93% nitrogen, 4% carbon dioxide, and 3% oxygen during the 72-h incubation at 37° C.). Ten microliters of detection reagent consisting of 1 OX SYBR Green I (Invitrogen; supplied in 10,000× concentration) in lysis buffer (20 mM Tris-HCl, 5 mM EDTA, 0.16% Saponin wt/vol, 1.6% Triton X vol/vol) was dispensed into the assay plates. For optimal staining, the assay plates were left at room temperature for 24 h in the dark. The assay plates were read by using an Envision (PerkinElmer) reader, with 505 dichroic mirrors with 485-nm excitation and 530-nm emission settings, and the plate reads were from the bottom.
row,EC50 [nM],Structure (SMILES)
1,423,"CCCC(=O)N1CC2(CCN(C(=O)Nc3ccccc3F)CC2)c2c([nH]c3cc(OC)ccc23)[C@@H]1CO [Compound 36, (R)-2′-butyryl-N-(2-fluorophenyl)-1′-(hydroxymethyl)-7′-methoxy-1′,2′,3′,9′-tetrahydrospiro[piperidine-4,4′-pyrido[3,4-b]indole]-1-carboxamide]"
2,577,"COc1ccc2c3c([nH]c2c1)[C@H](CO)N(C(C)=O)CC31CCN(C(=O)Nc2cccc(F)c2)CC1 [Compound 37, (R)-2′-acetyl-N-(3-fluorophenyl)-1′-(hydroxymethyl)-7′-methoxy-1′,2′,3′,9′-tetrahydrospiro[piperidine-4,4′-pyrido[3,4-b]indole]-1-carboxamide]"
3,752,COc1ccc2c3c([nH]c2c1)[C@H](CO)N(C(C)=O)CC31CCN(C(=O)Cc2ccccc2F)CC1 [Compound 39]
4,17500,"COc1ccc2c3c([nH]c2c1)[C@H](CO)N(C(C)=O)CC31CCN(C(=O)c2ccccc2F)CC1 [Compound 41, (R)-1-(1-(2-fluorobenzoyl)-1′-(hydroxymethyl)-7′-methoxyspiro[piperidine-4,4′-pyrido[3,4-b]indol]-2′(1′H,3′H,9′H)-yl)ethanone]"
5,1750 to 1900,"COc1ccc2c3c([nH]c2c1)[C@H](CO)N(CCc1ccccc1)CC31CCN(C(=O)Nc2ccccc2F)CC1 [Compound 42, (R)-N-(2-fluorophenyl)-1′-(hydroxymethyl)-7′-methoxy-2′-phenethyl-1′,2′,3′,9′-tetrahydrospiro[piperidine-4,4′-pyrido[3,4-b]indole]-1-carboxamide]"
6,3370 to 5220,"COc1ccc2c3c([nH]c2c1)[C@H](CO)N(C(C)=O)CC31CCN(C(=O)NC2CCCCC2)CC1 [Compound 43, (R)-2′-acetyl-N-cyclohexy1-1′-(hydroxymethyl)-7′-methoxy-1′,2′,3′,9′-tetrahydrospiro[piperidine-4,4′-pyrido[3,4-b]indole]-1-carboxamide]"
7,1600 to 3280,"COc1ccc2c3c([nH]c2c1)[C@H](CO)N(C(C)=O)CC31CCN(S(=O)(=O)Cc2ccccc2F)CC1 [Compound 44, (R)-1-(1-((2-fluorobenzyl)sulfonyl)-1′-(hydroxymethyl)-7′-methoxyspiro[piperidine-4,4′-pyrido[3,4-b]indol]-2′(1′H,3′H,9′H)-yl)ethanone]"
8,44 to 131,"COc1ccc2c3c([nH]c2c1)[C@H](CO)N(C(C)=O)CC31CCN(C(=O)Nc2cccc(F)c2F)CC1 [Compound 45, (R)-2′-acetyl-N-(2,3-difluorophenyl)-1′-(hydroxymethyl)-7′-methoxy-1′,2′,3′,9′-tetrahydrospiro[piperidine-4,4′-pyrido[3,4-b]indole]-1-carboxamide]"
9,2430 to 6330,"COc1ccc2c3c([nH]c2c1)[C@H](CN1CCOCC1)N(C(C)=O)CC31CCN(C(=O)OC(C)(C)C)CC1 [Compound 46, (S)-tert-butyl 2′-acetyl-7′-methoxy-1′-(morpholinomethyl)-1′,2′,3′,9′-tetrahydrospiro[piperidine-4,4′-pyrido[3,4-b]indole]-1-carboxylate]"
10,2230 to 3230,"COc1ccc2c3c([nH]c2c1)[C@@H]1COCC(=O)N1CC31CCN(C(=O)Nc2ccccc2F)CC1 [Compound 47, (R)-N-(2-fluorophenyl)-10-methoxy-4-oxo-1,3,4,6,12,12b-hexahydrospiro[[1,4]oxazino[4′,3′:1 ,2]pyrido[3,4-b]indole-7,4′-piperidine]-1′-carboxamide]"
11,214 to 236,"COc1ccc2c3c([nH]c2c1)[C@H](C)N(C(C)=O)CC31CCN(C(=O)Nc2ccccc2F)CC1 [Compound 48, (S)-2-acetyl-N-(2-fluorophenyl)-7′-methoxy-1'-methyl-1′,2′,3′,9′-tetrahydrospiro[piperidine-4,4′-pyrido[3,4-b]indole]-1-carboxamide]"
12,2390 to 2920,"CCCN1CC2(CCN(C(=O)Nc3ccccc3F)CC2)c2c([nH]c3cc(OC)ccc23)[C@@H]1CO [Compound 49, (R)-N-(2-fluorophenyl)-1′-(hydroxymethyl)-7′-methoxy-2′-propyl-1′,2′,3′,9′-tetrahydrospiro[piperidine-4,4′-pyrido[3,4-b]indole]-1-carboxamide]"
13,1240 to 2250,"COc1ccc2c3c([nH]c2c1)[C@H](CO)N(C(=O)c1ccccc1)CC31CCN(C(=O)Nc2ccccc2F)CC1 [Compound 50, (R)-2′-benzoyl-N-(2-fluorophenyl)-1′-(hydroxymethyl)-7′-methoxy-1′,2′,3′,9′-tetrahydrospiro[piperidine-4,4′-pyrido[3,4-b]indole]-1-carboxamide]"
14,177 to 235,"COc1ccc2c3c([nH]c2c1)[C@H](CO)N(C(C)=O)CC31CCN(C(=O)Nc2c(F)cccc2F)CC1 [Compound 51, (R)-2′-acetyl-N-(2,6-difluorophenyl)-1′-(hydroxymethyl)-7′-methoxy-1′,2′,3′,9′-tetrahydrospiro[piperidine-4,4′-pyrido[3,4-b]indole]-1-carboxamide]"
15,1450 to 1980,"COc1ccc2c3c([nH]c2c1)[C@H](CO)N(C(C)=O)CC31CCN(C(=O)Nc2cccnc2)CC1 [Compound 52, (R)-2′-acetyl-1′-(hydroxymethyl)-7′-methoxy-N-(pyridin-3-yl)-1′,2′,3′,9′-tetrahydrospiro[piperidine-4,4′-pyrido[3,4-b]indole]-1-carboxamide]"
16,37 to 118,"COc1ccc2c3c([nH]c2c1)[C@H](CO)N(S(C)(=O)=O)CC31CCN(C(=O)Nc2ccccc2F)CC1 [Compound 53, (R)-N-(2-fluorophenyl)-1′-(hydroxymethyl)-7′-methoxy-2′-(methylsulfonyl)-1′,2′,3′,9′-tetrahydrospiro[piperidine-4,4′-pyrido[3,4-b]indole]-1-carboxamide]"
17,353 to 551,"COc1ccc2c3c([nH]c2c1)[C@H](CO)N(C(C)=O)CC31CCN(C(=O)Nc2ccc(F)cc2F)CC1 [Compound 54, (R)-2′-acetyl-N-(2,4-difluorophenyl)-1′-(hydroxymethyl)-7′-methoxy-1′,2′,3′,9′-tetrahydrospiro[piperidine-4,4′-pyrido[3,4-b]indole]-1-carboxamide]"
18,321 to 719,"COc1ccc2c3c([nH]c2c1)[C@H](CO)N(C(C)=O)CC31CCN(C(=O)Nc2cc(F)ccc2F)CC1 [Compound 55, (R)-2′-acetyl-N-(2,5-difluorophenyl)-1′-(hydroxymethyl)-7′-methoxy-1′,2′,3′,9′-tetrahydrospiro [piperidine-4,4′-pyrido[3,4-b]indole]-1-carboxamide]"

row,Structure (SMILES),EC50 [nM]
1,"COc1ccc2c3c([nH]c2c1)[C@H](CO[Si](C)(C)C(C)(C)C)N(C(C)=O)CC31CCN(Cc2ccccc2F)CC1 [Compound 38, (R)-1-(1′-(((tert-butyldimethylsilyl)oxy)methyl)-1-(2-fluorobenzyl)-7′-methoxyspiro[piperidine-4,4′-pyrido[3,4-b]indol]-2′(1′H,3′H,9′H)-yl)ethanone]",809
2,"COc1ccc2c3c([nH]c2c1)[C@H](CO[Si](C)(C)C(C)(C)C)NCC31CCN(C(=O)Nc2ccccc2F)CC1 [Compound 40, (R)-1′-(((tert-butyldimethylsilyl)oxy)methyl)-N-(2-fluorophenyl)-7′-methoxy-1′,2′,3′,9′-tetrahydrospiro[piperidine-4,4′-pyrido[3,4-b]indole]-1-carboxamide]",1220
